Laboratory results from PubChem BioAssay (NCI).
Values joined by “and” are separate entries in the source; they are usually repeats but may differ in a detail not shown here. Equal entries are not always repeated.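 Five compound concentrations were applied to cells in 96-well plates for 48 hours; endpoints were derived by simple linear interpolation of the resulting dose-response curve. The concentration for 50% growth inhibition is given as GI50. TGI: concentration producing complete growth inhibition.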 Where a SMILES comes first, the peptide text is derived from it. [ ]: non-standard residue; d: D form. Orn = NCCC[CH](N)C(=O)O

Key:
Experiment in all cases: NCI anticancer screen, dose series, 48 h
CAKI-1 renal = system: CAKI-1 renal
TK-10 renal = system: TK-10 renal
PC-3 prostate = system: PC-3 prostate
SNB-19 CNS = system: SNB-19 CNS
MALME-3M melanoma = system: MALME-3M melanoma
A498 renal = system: A498 renal
UACC-257 melanoma = system: UACC-257 melanoma
U251 CNS = system: U251 CNS
SK-MEL-28 melanoma = system: SK-MEL-28 melanoma
IGROV1 ovarian = system: IGROV1 ovarian
SW-620 colon = system: SW-620 colon
MOLT-4 leukemia = system: MOLT-4 leukemia
OVCAR-4 ovarian = system: OVCAR-4 ovarian
SNB-75 CNS = system: SNB-75 CNS
HS 578T breast = system: HS 578T breast
M14 melanoma = system: M14 melanoma
DU-145 prostate = system: DU-145 prostate
RXF 393 renal = system: RXF 393 renal
SF-268 CNS = system: SF-268 CNS
SK-MEL-5 melanoma = system: SK-MEL-5 melanoma
HCT-15 colon = system: HCT-15 colon
SK-OV-3 ovarian = system: SK-OV-3 ovarian
OVCAR-8 ovarian = system: OVCAR-8 ovarian
ACHN renal = system: ACHN renal
MDA-MB-435 = system: MDA-MB-435
EKVX NSCLC = system: EKVX NSCLC
COLO 205 colon = system: COLO 205 colon
NCI-H522 lung = system: NCI-H522 lung
SN12C renal = system: SN12C renal
SF-539 CNS = system: SF-539 CNS
HCC-2998 colon = system: HCC-2998 colon
MCF7 breast = system: MCF7 breast
NCI-H23 lung = system: NCI-H23 lung
RPMI-8226 leukemia = system: RPMI-8226 leukemia
SR leukemia = system: SR leukemia
LOX IMVI melanoma = system: LOX IMVI melanoma
CCRF-CEM leukemia = system: CCRF-CEM leukemia
NCI/ADR-RES ovarian = system: NCI/ADR-RES ovarian
HL-60(TB) leukemia = system: HL-60(TB) leukemia
SK-MEL-2 melanoma = system: SK-MEL-2 melanoma
HOP-92 NSCLC = system: HOP-92 NSCLC
NCI-H460 lung = system: NCI-H460 lung
HCT-116 colon = system: HCT-116 colon
OVCAR-3 ovarian = system: OVCAR-3 ovarian
MDA-MB-231 breast = system: MDA-MB-231 breast
BT-549 breast = system: BT-549 breast
HOP-62 NSCLC = system: HOP-62 NSCLC
NCI-H226 lung = system: NCI-H226 lung
OVCAR-5 ovarian = system: OVCAR-5 ovarian
T-47D breast = system: T-47D breast
A549 NSCLC = system: A549 NSCLC
UO-31 renal = system: UO-31 renal
SF-295 CNS = system: SF-295 CNS
786-0 renal = system: 786-0 renal
KM12 colon = system: KM12 colon
UACC-62 melanoma = system: UACC-62 melanoma
K-562 leukemia = system: K-562 leukemia
HT29 colon = system: HT29 colon

Compound: CC(C)CC1NC(=O)C(CCCN)NC(=O)C(C(C)C)NC(=O)C2CCCN2C(=O)C(Cc2ccccc2)NC(=O)C(CC(C)C)NC(=O)C(CCCN)NC(=O)C(C(C)C)NC(=O)C2CCCN2C(=O)C(Cc2ccccc2)NC1=O (stereo not given) (cyclo(FPV[Orn]LFPV[Orn]L); configuration not given here)
- GI50 (CAKI-1 renal): 564 nM and 1020 nM
- TGI (CAKI-1 renal): 2140 nM and 7230 nM
- GI50 (TK-10 renal): 21.3 nM and 104 nM
- TGI (TK-10 renal): 1510 nM and 5710 nM
- GI50 (PC-3 prostate): 7.03 nM
- TGI (PC-3 prostate): 140 nM and 1120 nM
- GI50 (SNB-19 CNS): < 3.25 nM
- TGI (SNB-19 CNS): 486 nM and 1380 nM
- GI50 (MALME-3M melanoma): 10.8 nM and 28.6 nM
- TGI (MALME-3M melanoma): 120 nM and 92.9 nM
- GI50 (A498 renal): 92 nM and 106 nM
- TGI (A498 renal): 743 nM and 632 nM
- GI50 (UACC-257 melanoma): 8.72 nM and 14.5 nM
- TGI (UACC-257 melanoma): 48 nM and 70.5 nM
- GI50 (U251 CNS): < 3.25 nM
- TGI (U251 CNS): 140 nM and 117 nM
- GI50 (SK-MEL-28 melanoma): 39.5 nM
- TGI (SK-MEL-28 melanoma): 962 nM and 1630 nM
- GI50 (IGROV1 ovarian): 180 nM and 228 nM
- TGI (IGROV1 ovarian): 4690 nM and 3750 nM
- GI50 (SW-620 colon): 12.3 nM and 23.9 nM
- TGI (SW-620 colon): 422 nM and 1170 nM
- GI50 (MOLT-4 leukemia): 23.6 nM
- TGI (MOLT-4 leukemia): 402 nM
- GI50 (OVCAR-4 ovarian): 13.3 nM
- GI50 (SNB-75 CNS): 10.3 nM
- TGI (SNB-75 CNS): 149 nM and 63.7 nM
- GI50 (HS 578T breast): 16.6 nM and 45.3 nM
- TGI (HS 578T breast): 784 nM and 1640 nM
- GI50 (M14 melanoma): 10.1 nM
- TGI (M14 melanoma): 609 nM and 1520 nM
- GI50 (DU-145 prostate): 18.4 nM and 52.9 nM
- TGI (DU-145 prostate): 1450 nM and 1970 nM
- GI50 (RXF 393 renal): 35.2 nM and 51.5 nM
- TGI (RXF 393 renal): 720 nM and 1440 nM
- GI50 (SF-268 CNS): 16.8 nM and 59.4 nM
- TGI (SF-268 CNS): 565 nM and 1660 nM
- GI50 (SK-MEL-5 melanoma): 7.25 nM
- TGI (SK-MEL-5 melanoma): 19.9 nM and 22.9 nM
- GI50 (HCT-15 colon): 213 nM and 436 nM
- TGI (HCT-15 colon): 4060 nM and 4700 nM
- GI50 (SK-OV-3 ovarian): 10.8 nM
- TGI (SK-OV-3 ovarian): 505 nM and 1390 nM
- GI50 (OVCAR-8 ovarian): 11.3 nM and 25.2 nM
- TGI (OVCAR-8 ovarian): 591 nM and 1320 nM
- GI50 (ACHN renal): 96.1 nM and 81.6 nM
- TGI (ACHN renal): 3250 nM and 2210 nM
- GI50 (MDA-MB-435): 4.25 nM
- TGI (MDA-MB-435): 371 nM and 1210 nM
- GI50 (EKVX NSCLC): 10.5 nM and 17.5 nM
- TGI (EKVX NSCLC): 442 nM and 1230 nM
- GI50 (COLO 205 colon): < 3.25 nM
- TGI (COLO 205 colon): 4.19 nM
- GI50 (NCI-H522 lung): 7.67 nM
- TGI (NCI-H522 lung): 37.6 nM and 95.8 nM
- GI50 (SN12C renal): 11.1 nM and 28.8 nM
- TGI (SN12C renal): 419 nM and 1130 nM
- GI50 (SF-539 CNS): 14.6 nM and 47.7 nM
- TGI (SF-539 CNS): 421 nM and 1050 nM
- GI50 (HCC-2998 colon): < 3.25 nM
- TGI (HCC-2998 colon): 1290 nM and 1740 nM
- GI50 (MCF7 breast): 10.9 nM
- TGI (MCF7 breast): 373 nM and 102 nM
- GI50 (NCI-H23 lung): 8.35 nM and 19.2 nM
- TGI (NCI-H23 lung): 101 nM and 175 nM
- GI50 (RPMI-8226 leukemia): < 3.25 nM and 11.4 nM
- TGI (RPMI-8226 leukemia): 30.9 nM and 185 nM
- GI50 (SR leukemia): 14.8 nM and 36 nM
- TGI (SR leukemia): 258 nM and 960 nM
- GI50 (LOX IMVI melanoma): 10.1 nM and 22.1 nM
- TGI (LOX IMVI melanoma): 47.4 nM and 54 nM
- GI50 (CCRF-CEM leukemia): 8.14 nM
- TGI (CCRF-CEM leukemia): 320 nM
- GI50 (NCI/ADR-RES ovarian): 614 nM and 2140 nM
- TGI (NCI/ADR-RES ovarian): 5050 nM and 13300 nM
- GI50 (HL-60(TB) leukemia): 15.1 nM and 37.1 nM
- TGI (HL-60(TB) leukemia): 104 nM and 251 nM
- GI50 (SK-MEL-2 melanoma): 9.39 nM and 24.3 nM
- TGI (SK-MEL-2 melanoma): 40.4 nM and 89.1 nM
- GI50 (HOP-92 NSCLC): 6.61 nM and 12.6 nM
- TGI (HOP-92 NSCLC): 20.4 nM and 54.5 nM
- GI50 (NCI-H460 lung): 11.1 nM and 28.7 nM
- TGI (NCI-H460 lung): 38.5 nM and 107 nM
- GI50 (HCT-116 colon): 10.2 nM and 16.7 nM
- TGI (HCT-116 colon): 122 nM and 213 nM
- GI50 (OVCAR-3 ovarian): 10.3 nM and 32.2 nM
- TGI (OVCAR-3 ovarian): 211 nM and 1430 nM
- GI50 (MDA-MB-231 breast): 20.9 nM and 24.2 nM
- TGI (MDA-MB-231 breast): 146 nM and 87.7 nM
- GI50 (BT-549 breast): 32.6 nM and 45.9 nM
- TGI (BT-549 breast): 261 nM and 271 nM
- GI50 (HOP-62 NSCLC): 5.95 nM
- TGI (HOP-62 NSCLC): 418 nM and 1310 nM
- GI50 (NCI-H226 lung): 20.3 nM and 56.4 nM
- TGI (NCI-H226 lung): 1030 nM and 1920 nM
- GI50 (OVCAR-5 ovarian): 11.7 nM
- TGI (OVCAR-5 ovarian): 968 nM and 1980 nM
- GI50 (T-47D breast): < 3.25 nM
- TGI (T-47D breast): 433 nM and 1240 nM
- GI50 (A549 NSCLC): 9.14 nM and 16.2 nM
- TGI (A549 NSCLC): 149 nM and 1090 nM
- GI50 (UO-31 renal): 599 nM and 1640 nM
- TGI (UO-31 renal): 3610 nM and 6370 nM
- GI50 (SF-295 CNS): 6.44 nM and 20.6 nM
- TGI (SF-295 CNS): 18.6 nM and 73.5 nM
- GI50 (786-0 renal): 45.1 nM and 50.6 nM
- TGI (786-0 renal): 460 nM and 1260 nM
- GI50 (KM12 colon): 5.13 nM
- TGI (KM12 colon): 363 nM and 1040 nM
- GI50 (UACC-62 melanoma): < 12.3 nM and 31.5 nM
- TGI (UACC-62 melanoma): 443 nM and 1260 nM
- GI50 (K-562 leukemia): < 3.25 nM
- TGI (K-562 leukemia): 56.5 nM
- GI50 (HT29 colon): 13.3 nM and 36.3 nM
- TGI (HT29 colon): 266 nM and 1220 nM
